ChEMBL document CHEMBL1201862, “PubChem BioAssay data set” (2004)
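A five-concentration, 48-hour dose response in 96-well plates underlies each endpoint, interpolated linearly between surrounding concentrations. At the GI50, growth is halved.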 Calls of active or inactive are those of the source. Cut-off read from the data, not from the text of the source: active = GI50 up to about 1.1 µM and inactive = higher.

Assays:
Test in all cases: DTP human tumour cell line panel, 48 h
HL-60 = system: HL-60
HCT-116 = system: HCT-116
CAKI-1 = system: CAKI-1
SR = system: SR
OVCAR-8 = system: OVCAR-8
NCI-H23 = system: NCI-H23
DU-145 = system: DU-145
SW-620 = system: SW-620
HOP-62 = system: HOP-62
SK-MEL-28 = system: SK-MEL-28
UO-31 = system: UO-31
Malme-3M = system: Malme-3M
HCT-15 = system: HCT-15
HT-29 = system: HT-29
BT-549 = system: BT-549
Hs-578T = system: Hs-578T
COLO 205 = system: COLO 205
SF-295 = system: SF-295
RXF 393 = system: RXF 393
SNB-75 = system: SNB-75

Measured: GI50

COc1cc(/C=C2/SC(c3ccccc3)N(c3cccc(Cl)c3)C2=O)cc(OC)c1OC (stereo not given)
20.7 µM: HCT-15
inactive: HL-60 29.8 µM | HCT-116 15.3 µM | CAKI-1 35.9 µM | SR 10.8 µM | OVCAR-8 23.1 µM | NCI-H23 22.9 µM | DU-145 39.1 µM | SW-620 28.6 µM | HOP-62 39.8 µM | SK-MEL-28 26.2 µM | UO-31 24.8 µM | Malme-3M 24.6 µM | HT-29 25.6 µM | BT-549 24.1 µM | Hs-578T 47 µM | COLO 205 56.1 µM | SF-295 8.22 µM | RXF 393 15.9 µM

CC(C)(CC1(C)NC(=O)NC1=O)OCc1ccccc1 (stereo not given)
active: HL-60 < 0.01 µM
> 100 µM: HCT-15
inactive: HCT-116 > 100 µM | CAKI-1 > 100 µM | SR > 100 µM | OVCAR-8 > 100 µM | NCI-H23 > 100 µM | DU-145 > 100 µM | SW-620 > 100 µM | HOP-62 > 100 µM | SK-MEL-28 > 100 µM | UO-31 > 100 µM | Malme-3M > 100 µM | HT-29 > 100 µM | BT-549 > 100 µM | SNB-75 > 100 µM | Hs-578T > 100 µM | SF-295 > 100 µM | RXF 393 > 100 µM

CCOC(=O)c1c(-c2ccccc2)c(-c2ccccc2)cn1C
inactive: HL-60 > 10 µM | SR 3.51 µM | OVCAR-8 > 10 µM | NCI-H23 > 10 µM | DU-145 8.95 µM | UO-31 > 10 µM | Malme-3M > 10 µM | HT-29 8.67 µM | BT-549 > 10 µM | SNB-75 > 10 µM | Hs-578T 4.92 µM | SF-295 > 10 µM | RXF 393 3.93 µM
> 10 µM: HCT-15

CCOC(=O)NC(C(F)(F)F)(C(F)(F)F)P(=O)(OC(C)C)OC(C)C
> 100 µM: HCT-15
inactive: HL-60 > 100 µM | HCT-116 > 100 µM | SR > 100 µM | OVCAR-8 > 100 µM | NCI-H23 > 100 µM | DU-145 > 100 µM | SW-620 > 100 µM | HOP-62 > 100 µM | SK-MEL-28 > 100 µM | UO-31 > 100 µM | Malme-3M > 100 µM | HT-29 > 100 µM | BT-549 > 100 µM | SNB-75 > 100 µM | Hs-578T > 100 µM | COLO 205 > 100 µM | SF-295 > 100 µM | RXF 393 > 100 µM

O=C(N/N=C(/c1ccccc1)C(F)(F)F)c1ccncc1
> 100 µM: HCT-15
active: RXF 393 0.923 µM
inactive: HL-60 > 100 µM | HCT-116 > 100 µM | CAKI-1 > 100 µM | SR > 100 µM | OVCAR-8 > 100 µM | NCI-H23 > 100 µM | DU-145 > 100 µM | HOP-62 > 100 µM | SK-MEL-28 > 100 µM | UO-31 > 100 µM | Malme-3M > 100 µM | HT-29 > 100 µM | BT-549 > 100 µM | SNB-75 > 100 µM | Hs-578T > 100 µM | COLO 205 > 100 µM | SF-295 > 100 µM

NC(Cc1cccnn1)C(=O)O (stereo not given)
> 100 µM: HCT-15
inactive: HL-60 > 100 µM | HCT-116 > 100 µM | CAKI-1 > 100 µM | SR > 100 µM | OVCAR-8 > 100 µM | NCI-H23 > 100 µM | DU-145 > 100 µM | SW-620 > 100 µM | HOP-62 > 100 µM | SK-MEL-28 > 100 µM | UO-31 > 100 µM | Malme-3M > 100 µM | HT-29 > 100 µM | BT-549 > 100 µM | SNB-75 > 100 µM | Hs-578T > 100 µM | COLO 205 > 100 µM | SF-295 > 100 µM | RXF 393 > 100 µM

CCCCCCCCCCCCCCCCCCNc1ccn(C2OC(COP(=O)(O)OCC3OC(n4cc(C)c(=O)[nH]c4=O)CC3O)C(O)C2O)c(=O)n1 (stereo not given)
inactive: HCT-116 17.1 µM | CAKI-1 18.4 µM | SR 11.9 µM | OVCAR-8 17.8 µM | NCI-H23 15.2 µM | DU-145 17.8 µM | SW-620 15.2 µM | HOP-62 16.7 µM | SK-MEL-28 17.5 µM | UO-31 18.5 µM | Malme-3M 16.6 µM | HT-29 16.7 µM | BT-549 14.7 µM | SNB-75 17.5 µM | Hs-578T 19.4 µM | COLO 205 14.9 µM | SF-295 18.7 µM | RXF 393 12 µM
16.1 µM: HCT-15

CC1(C)CC(C2=NCCO2)CC(C)(C)N1
> 100 µM: HCT-15
inactive: HL-60 > 100 µM | HCT-116 > 100 µM | CAKI-1 > 100 µM | SR > 100 µM | OVCAR-8 > 100 µM | NCI-H23 > 100 µM | DU-145 > 100 µM | HOP-62 > 100 µM | SK-MEL-28 > 100 µM | UO-31 > 100 µM | Malme-3M > 100 µM | HT-29 > 100 µM | BT-549 > 100 µM | SNB-75 > 100 µM | Hs-578T > 100 µM | COLO 205 > 100 µM | SF-295 > 100 µM | RXF 393 > 100 µM

COc1ccc(/C=N/NC(=O)c2ccc(O)c(CN(C)C)c2)cc1
> 100 µM: HCT-15
inactive: HL-60 > 100 µM | HCT-116 > 100 µM | CAKI-1 > 100 µM | SR > 100 µM | OVCAR-8 > 100 µM | NCI-H23 > 100 µM | DU-145 > 100 µM | SW-620 > 100 µM | HOP-62 > 100 µM | SK-MEL-28 > 100 µM | UO-31 > 100 µM | Malme-3M > 100 µM | HT-29 > 100 µM | BT-549 > 100 µM | Hs-578T > 100 µM | COLO 205 > 100 µM | SF-295 > 100 µM | RXF 393 > 100 µM

CSc1ccc(-c2cc(-c3nc4ccccc4[nH]3)nc3[nH]c(-c4nc5ccccc5[nH]4)cc(=O)c23)cc1
inactive: HL-60 > 100 µM | HCT-116 39.4 µM | CAKI-1 > 100 µM | SR > 100 µM | OVCAR-8 71 µM | NCI-H23 > 100 µM | DU-145 > 100 µM | HOP-62 84.5 µM | UO-31 > 100 µM | Malme-3M > 100 µM | HT-29 68.5 µM | BT-549 85.3 µM | SNB-75 56.2 µM | Hs-578T > 100 µM | COLO 205 37.8 µM | SF-295 86.1 µM | RXF 393 52.5 µM
> 100 µM: HCT-15

COc1ccc(/N=C2/SC(=N/N=c3\sc4ccccc4n3C)S/C2=N/c2ccc(OC)cc2)cc1
inactive: HCT-116 29.8 µM | CAKI-1 > 100 µM | SR > 100 µM | OVCAR-8 > 100 µM | NCI-H23 41.9 µM | DU-145 > 100 µM | SW-620 > 100 µM | HOP-62 31.6 µM | SK-MEL-28 > 100 µM | UO-31 > 100 µM | Malme-3M > 100 µM | HT-29 > 100 µM | BT-549 67.9 µM | SNB-75 24.6 µM | Hs-578T 36.2 µM | COLO 205 > 100 µM | SF-295 51.8 µM | RXF 393 34 µM
> 100 µM: HCT-15

CC(=O)OCCCC(NC(=O)OC(C)(C)C)C(=O)NC(CCCOC(C)=O)C(=O)NC(Cc1ccc([N+](=O)[O-])cc1)C(=O)NCC(=O)OCc1ccccc1 (stereo not given)
15.1 µM: HCT-15
inactive: HL-60 3.15 µM | HCT-116 18.1 µM | CAKI-1 18.5 µM | SR 15.6 µM | OVCAR-8 17.3 µM | NCI-H23 14.3 µM | DU-145 16.4 µM | SW-620 16.9 µM | HOP-62 19.5 µM | SK-MEL-28 17.9 µM | UO-31 16.1 µM | Malme-3M 19.9 µM | HT-29 17.9 µM | BT-549 18.5 µM | Hs-578T 14 µM | COLO 205 17.6 µM | SF-295 11.9 µM | RXF 393 13.1 µM

CC(=O)O[C@@H]1C(C2CCCCC2)C=[N+]([O-])O[C@@H]1OC1CCCC1(c1ccccc1)c1ccccc1 (stereo not given in full)
1.92 µM: HCT-15
inactive: HL-60 1.6 µM | HCT-116 4.06 µM | CAKI-1 5.33 µM | SR 2.62 µM | OVCAR-8 2.04 µM | NCI-H23 11 µM | DU-145 10.9 µM | SW-620 2.04 µM | HOP-62 14.9 µM | SK-MEL-28 2.32 µM | UO-31 8.09 µM | Malme-3M 2.99 µM | HT-29 2.09 µM | BT-549 12.4 µM | SNB-75 3.85 µM | Hs-578T 11 µM | COLO 205 5.73 µM | SF-295 14.4 µM | RXF 393 2.58 µM

C[N+]1(CCCC[N+]2(C)CCCCCCC2)CCCCCCC1
active: Hs-578T 0.227 µM
> 100 µM: HCT-15
inactive: HL-60 > 100 µM | HCT-116 > 100 µM | CAKI-1 > 100 µM | SR > 100 µM | OVCAR-8 > 100 µM | NCI-H23 > 100 µM | DU-145 > 100 µM | SW-620 > 100 µM | HOP-62 > 100 µM | SK-MEL-28 > 100 µM | UO-31 > 100 µM | Malme-3M > 100 µM | HT-29 > 100 µM | BT-549 > 100 µM | SF-295 > 100 µM | RXF 393 > 100 µM

O=S(=O)(N/C(=N\O)Nc1ccc(Cl)cc1)c1cc(S(=O)(=O)c2ccccc2)cs1
inactive: HL-60 2.81 µM | HCT-116 13.6 µM | CAKI-1 16.6 µM | SR 6.21 µM | OVCAR-8 15.8 µM | NCI-H23 17.9 µM | DU-145 18 µM | SW-620 19.8 µM | HOP-62 17.5 µM | SK-MEL-28 16 µM | UO-31 14.3 µM | Malme-3M 14.2 µM | HT-29 21 µM | BT-549 15.5 µM | Hs-578T 13.6 µM | COLO 205 18.7 µM | SF-295 15.8 µM | RXF 393 16.3 µM
18.8 µM: HCT-15
